{"source": "patent US20250382287A1", "about": "“PHARMACEUTICALLY ACCEPTABLE SALT AND CRYSTAL FORM OF NITROGEN-CONTAINING BRIDGE HETEROCYCLIC DERIVATIVE, AND METHOD FOR PREPARING SAME” (JIANGSU HENGRUI PHARMACEUTICALS CO., LTD., priority 2022, published 2025)", "key": {"[1]": {"test": "DVS (dynamic vapor sorption) hygroscopicity testing", "assay_type": "physicochemical", "procedure": "DVS refers to dynamic vapor sorption: Surface Measurement Systems instrinsic was adopted; the humidity started at 50%, the humidity range investigated was 0%-95%, and the humidity was increased in increments of 10%; the criterion was that each gradient mass change dM/dT is less than 0.002%, TMAX 360 min, two cycles."}, "[2]": {"test": "Long-term/accelerated stability (sealed, 25° C./60% RH and 40° C./75% RH)"}, "[3]": {"test": "Influencing factor stability (open flasks, light, high temperature, high humidity, 30 days)"}, "[4]": {"details": "25° C., 60% RH, sealed, 1 month"}, "[5]": {"details": "25° C., 60% RH, sealed, 2 months"}, "[6]": {"details": "25° C., 60% RH, sealed, 3 months"}, "[7]": {"details": "25° C., 60% RH, sealed, 6 months"}, "[8]": {"details": "25° C./60% RH and 40° C./75% RH, 6 months"}, "[9]": {"details": "40° C., 75% RH, sealed, 1 month"}, "[10]": {"details": "40° C., 75% RH, sealed, 2 months"}, "[11]": {"details": "40° C., 75% RH, sealed, 3 months"}, "[12]": {"details": "40° C., 75% RH, sealed, 6 months"}, "[13]": {"details": "Light exposure (4500 Lux), 5 days, open flask"}, "[14]": {"details": "Light exposure (4500 Lux), 10 days, open flask"}, "[15]": {"details": "Light exposure (4500 Lux), 30 days, open flask"}, "[16]": {"details": "light exposure (4500 Lux), 40° C. and 60° C., high humidity RH 75% and 92.5%, 30 days"}}}
{"molecule": "CCO[C@H]1C[C@H]2CC[C@@](c3ccc(C(=O)O)cc3)(C1)N2Cc1c(OC)cc(C)c2[nH]ccc12.Cc1ccc(S(=O)(=O)O)cc1", "note": "[crystal form I of the p-toluenesulfonate, 4-((1S,3S,5R)-3-ethoxy-8-((5-methoxy-7-methyl-1H-indol-4-yl)methyl)-8-azabicyclo[3.2.1]octan-1-yl)benzoic acid-p-toluenesulfonate]", "values": [{"measurement": "hygroscopic weight gain under normal storage conditions", "setting": "[1]; DVS, 25° C. and 60% RH", "result": "about 1.22%"}, {"measurement": "hygroscopic weight gain under accelerated experimental conditions", "setting": "[1]; DVS, 70% RH", "result": "about 1.37%"}, {"measurement": "hygroscopic weight gain under extreme conditions", "setting": "[1]; DVS, 90% RH", "result": "about 1.87%"}, {"measurement": "crystal form re-identification after DVS testing", "setting": "[1]; XRPD after DVS", "result": "did not change"}, {"measurement": "Purity %", "setting": "[2]; [4]", "result": 100.0, "unit": "%"}, {"measurement": "Salt form", "setting": "[2]; [4]", "result": "No change"}, {"measurement": "Purity %", "setting": "[2]; [5]", "result": 100.0, "unit": "%"}, {"measurement": "Salt form", "setting": "[2]; [5]", "result": "No change"}, {"measurement": "Purity %", "setting": "[2]; [6]", "result": 100.0, "unit": "%"}, {"measurement": "Salt form", "setting": "[2]; [6]", "result": "No change"}, {"measurement": "Purity %", "setting": "[2]; [7]", "result": 100.0, "unit": "%"}, {"measurement": "Salt form", "setting": "[2]; [7]", "result": "No change"}, {"measurement": "chemical stability", "setting": "[2]; [8]", "result": "relatively good"}, {"measurement": "physical stability", "setting": "[2]; [8]", "result": "relatively good"}, {"measurement": "Purity %", "setting": "[2]; [9]", "result": 100.0, "unit": "%"}, {"measurement": "Salt form", "setting": "[2]; [9]", "result": "No change"}, {"measurement": "Purity %", "setting": "[2]; [10]", "result": 99.8, "unit": "%"}, {"measurement": "Salt form", "setting": "[2]; [10]", "result": "No change"}, {"measurement": "Purity %", "setting": "[2]; [11]", "result": 99.8, "unit": "%"}, {"measurement": "Salt form", "setting": "[2]; [11]", "result": "No change"}, {"measurement": "Purity %", "setting": "[2]; [12]", "result": 99.7, "unit": "%"}, {"measurement": "Salt form", "setting": "[2]; [12]", "result": "No change"}, {"measurement": "Purity %", "setting": "[2]; Initial", "result": 100.0, "unit": "%"}, {"measurement": "Color and state", "setting": "[3]; 40° C., 5 days, open flask", "result": "White solid"}, {"measurement": "Purity %", "setting": "[3]; 40° C., 5 days, open flask", "result": 99.8, "unit": "%"}, {"measurement": "Salt form", "setting": "[3]; 40° C., 5 days, open flask", "result": "No change"}, {"measurement": "Color and state", "setting": "[3]; 40° C., 10 days, open flask", "result": "White solid"}, {"measurement": "Purity %", "setting": "[3]; 40° C., 10 days, open flask", "result": 99.7, "unit": "%"}, {"measurement": "Salt form", "setting": "[3]; 40° C., 10 days, open flask", "result": "No change"}, {"measurement": "Color and state", "setting": "[3]; 40° C., 30 days, open flask", "result": "White solid"}, {"measurement": "Purity %", "setting": "[3]; 40° C., 30 days, open flask", "result": 99.5, "unit": "%"}, {"measurement": "Salt form", "setting": "[3]; 40° C., 30 days, open flask", "result": "No change"}, {"measurement": "Color and state", "setting": "[3]; 60° C., 5 days, open flask", "result": "White solid"}, {"measurement": "Purity %", "setting": "[3]; 60° C., 5 days, open flask", "result": 99.8, "unit": "%"}, {"measurement": "Salt form", "setting": "[3]; 60° C., 5 days, open flask", "result": "No change"}, {"measurement": "Color and state", "setting": "[3]; 60° C., 10 days, open flask", "result": "White solid"}, {"measurement": "Purity %", "setting": "[3]; 60° C., 10 days, open flask", "result": 99.8, "unit": "%"}, {"measurement": "Salt form", "setting": "[3]; 60° C., 10 days, open flask", "result": "No change"}, {"measurement": "Color and state", "setting": "[3]; 60° C., 30 days, open flask", "result": "White solid"}, {"measurement": "Purity %", "setting": "[3]; 60° C., 30 days, open flask", "result": 99.7, "unit": "%"}, {"measurement": "Salt form", "setting": "[3]; 60° C., 30 days, open flask", "result": "No change"}, {"measurement": "Color and state", "setting": "[3]; 75% RH, 5 days, open flask", "result": "White solid"}, {"measurement": "Purity %", "setting": "[3]; 75% RH, 5 days, open flask", "result": 99.9, "unit": "%"}, {"measurement": "Salt form", "setting": "[3]; 75% RH, 5 days, open flask", "result": "No change"}, {"measurement": "Color and state", "setting": "[3]; 75% RH, 10 days, open flask", "result": "White solid"}, {"measurement": "Purity %", "setting": "[3]; 75% RH, 10 days, open flask", "result": 99.9, "unit": "%"}, {"measurement": "Salt form", "setting": "[3]; 75% RH, 10 days, open flask", "result": "No change"}, {"measurement": "Color and state", "setting": "[3]; 75% RH, 30 days, open flask", "result": "White solid"}, {"measurement": "Purity %", "setting": "[3]; 75% RH, 30 days, open flask", "result": 99.9, "unit": "%"}, {"measurement": "Salt form", "setting": "[3]; 75% RH, 30 days, open flask", "result": "No change"}, {"measurement": "Color and state", "setting": "[3]; 92.5% RH, 5 days, open flask", "result": "White solid"}, {"measurement": "Purity %", "setting": "[3]; 92.5% RH, 5 days, open flask", "result": 100.0, "unit": "%"}, {"measurement": "Salt form", "setting": "[3]; 92.5% RH, 5 days, open flask", "result": "No change"}, {"measurement": "Color and state", "setting": "[3]; 92.5% RH, 10 days, open flask", "result": "White solid"}, {"measurement": "Purity %", "setting": "[3]; 92.5% RH, 10 days, open flask", "result": 100.0, "unit": "%"}, {"measurement": "Salt form", "setting": "[3]; 92.5% RH, 10 days, open flask", "result": "No change"}, {"measurement": "Color and state", "setting": "[3]; 92.5% RH, 30 days, open flask", "result": "White solid"}, {"measurement": "Purity %", "setting": "[3]; 92.5% RH, 30 days, open flask", "result": 99.9, "unit": "%"}, {"measurement": "Salt form", "setting": "[3]; 92.5% RH, 30 days, open flask", "result": "No change"}, {"measurement": "Color and state", "setting": "[3]; Initial, 0 days", "result": "White solid"}, {"measurement": "Purity %", "setting": "[3]; Initial, 0 days", "result": 100.0, "unit": "%"}, {"measurement": "Color and state", "setting": "[3]; [13]", "result": "White solid"}, {"measurement": "Purity %", "setting": "[3]; [13]", "result": 99.9, "unit": "%"}, {"measurement": "Salt form", "setting": "[3]; [13]", "result": "No change"}, {"measurement": "Color and state", "setting": "[3]; [14]", "result": "White solid"}, {"measurement": "Purity %", "setting": "[3]; [14]", "result": 99.9, "unit": "%"}, {"measurement": "Salt form", "setting": "[3]; [14]", "result": "No change"}, {"measurement": "Color and state", "setting": "[3]; [15]", "result": "White solid"}, {"measurement": "Purity %", "setting": "[3]; [15]", "result": 99.7, "unit": "%"}, {"measurement": "Salt form", "setting": "[3]; [15]", "result": "No change"}, {"measurement": "chemical stability", "setting": "[3]; [16]", "result": "good"}, {"measurement": "physical stability", "setting": "[3]; [16]", "result": "good"}]}
